Laboratory results taken from US10738028B2, “Spiro three-membered ring, spiro five-membered ring peptide deformylase inhibitor and use thereof in antibacteria and anti-tumor” (priority 2016, dated 2020).
In brackets after ≈: the same amount, converted by molar mass.

How the values were obtained:
[1] = test system: methicillin-resistant Staphylococcus aureus (MRSA); assay: MIC, two-fold agar dilution (CLSI), clinical isolates; type: cell-based
How it was run: (§1)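 Susceptibility was tested using CLSI two-fold agar dilution against the strains examined.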

[2] = test system: methicillin-sensitive Staphylococcus aureus (MSSA); assay: as above; type: cell-based
How it was run: as §1

[3] = test system: Escherichia coli (including ESBLs, non-ESBLs); assay: as above; type: cell-based
How it was run: as §1

[4] = test system: Enterococcus faecalis (EFA); assay: as above; type: cell-based
How it was run: as §1

[5] = test system: methicillin-resistant Staphylococcus epidermidis (MRSE); assay: as above; type: cell-based
How it was run: as §1

[6] = test system: methicillin-sensitive Staphylococcus epidermidis (MSSE); assay: as above; type: cell-based
How it was run: as §1

[7] = test system: HCT-116 colorectal cancer cell line; assay: CCK-8 proliferation inhibition; type: cell-based; details: Homo sapiens, HCT-116, 72 h, read-out: HCT116 inhibition rate/%
How it was run: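 Growth inhibition is read by CCK-8 (1:10 dilution) after 72 h of compound exposure. HCT-116 cells grow in McCoy's 5A containing 10% newborn bovine serum at 2000 cells/well, with 1‰ DMSO as vehicle control.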

[8] = test system: methemoglobin in blood samples of three healthy volunteers; assay: Toxicity on methemoglobin in vitro (whole blood with S9 and NADPH, absorbance at 630 nm); type: cell-based, human
Description: Because PDF inhibitors such as LBM415 and GSK1322322 can produce active species such as aromatic hydroxylamine and aromatic hydrazines in metabolic process, and cause human methemoglobinemia. To this end, continuous wavelength method was adopted in this invention to scan the absorption spectrum of blood samples in the wavelength range of 500 to 700 nm in the ultraviolet-visible spectrophotometer, and the contents of methemoglobin in blood samples of three healthy volunteers were calculated, after being effected by the synthesized compounds.
Experimental materials: Nicotinamide adenine dinucleotide phosphate (NADPH) reduction system: glucose-6-disodium phosphate, nicotinamide adenine dinucleoside phosphate and glucose-6-phosphate dehydrogenase (purchased from Shanghai yuanye Bio-Technology Co., Ltd) were added to 1 mL of phosphate buffer solution (PBS, pH 7.4), and the mixture was shaked in a shaker type water bath at 37° C. for 10 min, and then cooled to 0° C. Mixed human hepatocytes fraction S9 was purchased from Xenotech (20 mg S9 protein/1 mL suspension medium). Compounds were prepared to stock solution at a concentration of 50 mM, which was stored at −20° C. for use. Dapsone was used as positive control experimental reagent, which was purchased from Sigma Aldrich. 1% w/v triton X-100 was self-prepared. Blood samples were collected using Vacutainer tubes containing EDTA anticoagulants (BD, Franklin Lakes, USA), which were sampled from three healthy volunteers and used immediately after sampling.
Preparation of incubation system for blood samples and drugs: 250 μL of incubation system was consist of 220 μL of whole blood, 25 μL of S9 (final concentration: 2 mg S9 protein/mL incubation solution), 2.5 μL of NADPH form system (final concentration: 10 mM G-6-P, 1 mM NADP, 7.5 Units/mL) and 2.5 μL of stock solution of a compound (final concentration 500 μM). […] of incubation system was placed in an Eppendorf tube and incubated for 5 hours at 37° C. in water bath.
Determination of the content of methemoglobin: 60 μL of an incubated sample was taken and lysed with 3.0 mL of 1% Triton X-100. The content of methemoglobin (MetHb) was measured by an ultraviolet-visible spectrophotometer, with the Triton X-100 solution used as blank control. A sample was placed in a cuvette, 1 minute later, the spectrums of the sample in the wavelength range from 500 nm to 700 nm were recorded. The sample was added with 2 mg of potassium ferricyanide, and was allowed to stay stationary for 2 minutes for completely oxidization of ferrous iron in the sample, and standard spectrum of methemoglobin with saturated potassium ferricyanide. The percentage of methemoglobin formation (MetHb %) was obtained by the ratio of absorbance at 630 nm. MetHb %=(A′−AB′)/AM′, wherein, A′ was the total absorbance of the sample at 630 nm, AB′ was the base absorbance of the reduced blood in the sample at 630 nm, and AM′ was the absorbance of oxidized blood with saturated potassium ferricyanide at 630 nm.

[9] = MIC in vitro anti-bacterial experiments, Gram-positive bacteria; type: cell-based; details: read-out: minimum inhibitory concentration against Gram-positive bacteria
From the text: 1. The invention adopts the two-fold agar dilution method recommended by the operating procedure of antimicrobial susceptibility testing set by American Clinical and Laboratory Standards Institute (CLSI) to determine the Minimum Inhibitory Concentration (MIC) of the test samples against the tested strains.

Q: Which results are given for CCCC[C@H](CN(O)C=O)C(=O)N1CC2(CC2)C[C@H]1C(=O)Nc1cc(C(C)(C)C)on1 [Example 3]?
A: MIC (anti-bacterial activity) ([1]; strain MRSA 14-1): 0.06 µg/mL (≈ 0.138 µM); MIC (anti-bacterial activity) ([1]; strain MRSA 14-2): 0.06 µg/mL (≈ 0.138 µM); MIC (anti-bacterial activity) ([1]; strain MRSA 14-4): < 0.008 µg/mL; MIC (anti-bacterial activity) ([1]; strain MRSA 14-5): 0.06 µg/mL (≈ 0.138 µM); MIC (anti-bacterial activity) ([1]; strain printed MRSA 14-1 (second line of that name, r23, before MRSE 14-2)): 0.03 µg/mL (≈ 0.069 µM); MIC (anti-bacterial activity) ([2]; strain MSSA 14-1): 0.125 µg/mL (≈ 0.288 µM); MIC (anti-bacterial activity) ([2]; strain MSSA 14-2): 0.125 µg/mL (≈ 0.288 µM); MIC (anti-bacterial activity) ([2]; strain MSSA 14-3): 0.25 µg/mL (≈ 0.575 µM); MIC (anti-bacterial activity) ([2]; strain MSSA 14-4): 0.06 µg/mL (≈ 0.138 µM); MIC (anti-bacterial activity) ([3]; strain ECO+ 14-1): 1 µg/mL (≈ 2.3 µM); MIC (anti-bacterial activity) ([3]; strain ECO+ 14-2): 64 µg/mL (≈ 147 µM); MIC (anti-bacterial activity) ([3]; strain ECO− 14-1): 64 µg/mL (≈ 147 µM); MIC (anti-bacterial activity) ([3]; strain ECO− 14-2): 64 µg/mL (≈ 147 µM); MIC (anti-bacterial activity) ([4]; strain EFA 14-1): 0.5 µg/mL (≈ 1.15 µM); MIC (anti-bacterial activity) ([4]; strain EFA 14-2): 0.5 µg/mL (≈ 1.15 µM); MIC (anti-bacterial activity) ([4]; strain EFA 14-3): 0.5 µg/mL (≈ 1.15 µM); MIC (anti-bacterial activity) ([4]; strain EFA 14-5): > 128 µg/mL; MIC (anti-bacterial activity) ([5]; strain MRSE 14-2): 0.03 µg/mL (≈ 0.069 µM); MIC (anti-bacterial activity) ([5]; strain MRSE 14-3): 0.015 µg/mL (≈ 0.0345 µM); MIC (anti-bacterial activity) ([5]; strain MRSE 14-4): 0.03 µg/mL (≈ 0.069 µM); MIC (anti-bacterial activity) ([6]; strain MSSE 14-1): 0.03 µg/mL (≈ 0.069 µM); MIC (anti-bacterial activity) ([6]; strain MSSE 14-2): 0.125 µg/mL (≈ 0.288 µM); MIC (anti-bacterial activity) ([6]; strain MSSE 14-3): 0.015 µg/mL (≈ 0.0345 µM); MIC (anti-bacterial activity) ([6]; strain MSSE 14-4): 0.015 µg/mL (≈ 0.0345 µM); inhibition at 30 µM [7]: 2%; MetHb % (n = 3) ([8]; 500 μM compound, whole blood + S9 + NADPH, 5 hours at 37° C.): 3.33 ± 0.06%; probability of methemoglobin formation in blood compared with the control drugs LBM415 and GSK1322322 ([8]; toxicity test in vitro, in words): lower probability of methemoglobin formation in blood; MIC [9]: < 0.008 µg/mL
